# Laboratory results published in the supplement of paper PMC10307832.
# Tests used:
# Assay in all cases: relative viability (nuclei count vs DMSO), 5 days (fraction); higher = more cells survive
# [1] = compound: C1CNCCC1C2=CC(=NN2)C3=CC=NC=C3 + Cc1nc(Nc2ncc(C(=O)Nc3c(C)cccc3Cl)s2)cc(N2CCN(CCO)CC2)n1 [Dasatinib] (partner 0.075 µM)
# How it was run: (§1)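 Lung cancer cell lines were pin-tool dosed in 1536-well plates on the day after seeding, with either a lone drug or a fixed anchor-drug dose plus five library-drug doses (not always all listed) in √10 steps. Nuclei were counted on 4× images after 5 days. Relative viability is the ratio of treated-well to vehicle-well nuclei counts, with each value a median of duplicate plates.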
# [2] = compound: C[C@@H](N)c1ccc(C(=O)Nc2ccnc3[nH]ccc23)cc1 + COc1cccc2cc(-c3nc([C@H]4CC[C@H](C(=O)O)CC4)n4ncnc(N)c34)[nH]c12 [OSI-027] (partner 0.5 µM)
# How it was run: as §1
# [3] = compound: C[C@@H](N)c1ccc(C(=O)Nc2ccnc3[nH]ccc23)cc1 + NC(=O)Nc1cc(-c2cccc(F)c2)sc1C(=O)N[C@H]1CCCNC1 [AZD7762] (partner 0.2 µM)
# How it was run: as §1
# [4] = compound: C1CNCCC1C2=CC(=NN2)C3=CC=NC=C3 + CC(=O)c1c(C)c2cnc(Nc3ccc(N4CCNCC4)cn3)nc2n(C2CCCC2)c1=O [Palbociclib] (partner 0.5 µM)
# How it was run: as §1
Cell Line,relative viability ([1]; first compound 0.08 µM),relative viability ([1]; first compound 0.8 µM),relative viability ([1]; first compound 2.53 µM),relative viability ([1]; first compound 8 µM),relative viability ([2]; first compound 0.04 µM),relative viability ([2]; first compound 0.1265 µM),relative viability ([2]; first compound 0.4 µM),relative viability ([2]; first compound 1.265 µM),relative viability ([2]; first compound 4 µM),relative viability ([3]; first compound 0.04 µM),relative viability ([3]; first compound 0.1265 µM),relative viability ([3]; first compound 0.4 µM),relative viability ([3]; first compound 1.265 µM),relative viability ([3]; first compound 4 µM),relative viability ([4]; first compound 0.08 µM),relative viability ([4]; first compound 0.8 µM),relative viability ([4]; first compound 2.53 µM),relative viability ([4]; first compound 8 µM)
201T,0.62,0.561,0.602,0.602,0.844,0.835,0.961,1.01,0.856,0.644,0.678,0.668,1.01,0.783,0.376,0.353,0.355,0.362
A-427,0.639,0.751,0.731,0.703,0.407,0.392,0.509,,0.466,0.708,0.751,0.779,0.806,0.665,0.486,0.559,0.529,0.49
ABC-1,0.55,0.563,0.652,0.497,0.502,0.603,0.559,,0.511,,0.861,0.808,,0.554,0.468,0.617,0.733,0.76
BEN,0.266,0.286,0.339,0.326,0.293,0.307,0.3,0.314,0.284,0.607,0.879,0.841,0.913,0.663,0.447,0.47,0.45,0.433
CAL-12T,0.49,0.49,0.625,0.475,1.19,0.784,0.928,0.3,0.78,0.625,0.682,0.606,0.784,0.803,0.535,0.0415,0.566,0.572
COR-L23,0.532,0.417,0.518,0.469,0.775,0.838,0.755,0.748,0.669,,,,,,0.307,0.278,0.29,0.291
COR-L 105,0.332,0.364,0.382,0.368,0.719,0.943,0.852,0.517,0.563,,,,,,0.394,0.405,0.421,0.472
ChaGo-K-1,0.58,0.657,0.643,0.627,0.496,0.487,0.487,0.297,0.564,0.832,0.862,0.978,0.838,0.816,0.928,0.939,0.943,0.923
EKVX,0.576,0.565,0.645,0.525,0.609,0.798,0.832,0.761,0.727,0.708,0.714,0.896,0.745,0.707,0.38,,0.412,0.395
EMC-BAC-2,0.261,0.349,0.352,0.395,0.294,0.399,0.299,0.346,0.279,0.946,1.09,1.17,1.03,0.895,0.435,0.513,0.531,0.523
EPLC-272H,0.392,0.348,0.393,0.415,0.285,0.308,0.308,0.244,0.293,0.0944,0.216,0.18,,0.439,0.343,0.359,0.326,0.334
H3255,0.352,0.378,0.369,0.488,0.624,0.727,0.745,0.725,0.783,0.929,1.07,1.11,1.07,0.724,0.309,0.338,0.327,0.346
HARA,0.217,0.3,0.196,0.187,,0.437,0.638,,0.481,0.275,0.266,0.3,0.965,0.311,0.284,0.282,0.281,0.28
HCC-15,0.556,0.646,0.639,0.609,0.695,0.632,0.681,,0.619,1.19,1.23,1.4,1.18,1.28,0.734,0.849,0.79,0.699
HCC-44,,,,,0.37,0.433,0.644,0.19,0.482,1.07,1.01,1.09,1.26,1.09,0.994,0.997,1,0.97
HCC-78,0.352,0.257,0.356,0.369,0.54,0.389,0.476,0.388,0.544,0.798,0.624,0.788,0.856,0.477,0.503,0.429,0.472,0.479
HCC-366,0.405,0.898,0.618,0.594,0.787,0.847,0.993,,1.08,0.174,0.32,0.434,0.588,0.359,0.336,0.409,0.398,0.385
HCC-827,0.366,0.228,0.302,0.308,0.849,0.873,0.844,0.922,0.764,,0.286,0.247,0.329,0.275,0.498,0.437,0.534,0.499
HOP-62,0.691,0.635,0.703,0.648,0.819,0.76,0.852,0.745,0.821,0.534,0.471,0.746,0.685,0.402,0.34,0.489,0.463,0.468
